Patent publication US9233095B2, “Small molecule RNase inhibitors and methods of use” (University of Rochester, priority 2011, dated 2016)

What was measured:
S. aureus (MSSA) = assay: CLSI broth microdilution MIC; assay type: cell-based, Staphylococcus aureus; settings: strain UAMS-1, the strain's MIC used for time-kill assays
From the text: In some examples, compounds can be further assayed using the Mueller Hinton (MH) broth antibacterial assay as specified by the Clinical and Laboratory Standards Institute MIC broth microdilution protocol (see Methods for Dilution Antimicrobial Susceptibility Tests for Bacteria That Grow Aerobically; Approved Standard, In The Clinical and Laboratory Standards Institute (CLSI, formerly NCCLS), 7th ed., January 2006, 26 (2), M7-A7; see also Performance Standards for Antimicrobial Susceptibility Testing; Eighteenth Informational Supplement, In The Clinical and Laboratory Standards Institute (CLSI, formerly NCCLS), January 2008, 28 (1), M100-S18).
With the exception of RN4220-derivatives, in vitro activities of RNPA1000 against bacteria were determined by the broth microdilution method according to the Clinical and Laboratory Standards Institute (CLSI) guidelines using cation adjusted Mueller-Hinton broth or MH broth supplemented with 5% lysed horse blood (for testing Streptotococcus spp.). Microtiter plates containing serial dilutions of RNPA1000 (0, 4, 8, 16, 32, 64, and 128 μg/ml) were inoculated with 10^5 colony forming units (CFU)/ml and incubated for 18 hr at 37° C. […] The MIC value for each S. aureus strain was determined to be the median score of replicate measurements (n=5). Wells containing concentrations of RNPA1000≧MIC were plated for minimal bactericidal measurement. Where possible, experiments with VRSA strains were performed in a laminar flow hood to minimize potential for equipment contamination. For RN4220 cells containing plasmid vector (pCN51), RnpA overproducing plasmid (pRNPA-S) or RnpA underproducing plasmid (pRNPA-A.S.) in vitro antimicrobial activity of RNPA1000 was performed by the microdilution method as described above, except that cells were grown in Tryptic Soy Broth medium supplemented with 2.5 μM CdCl2 and 0, 1, 2, 4, 8, 16, 32, 64, or 128 μg/ml RNPA1000. Time-kill assays were also performed to monitor the antimicrobial properties of RNPA1000 for S. aureus strain UAMS-1 in the absence and presence of 0.25, 0.5, 2, and 4 times the strain's MIC for oxacillin (1 μg/ml), rifampicin (0.5 μg/ml), vancomycin (2 μg/ml), or daptomycin (1 μg/ml). The indicated amount of RNPA1000 and/or commercial antibiotic were added to mid-exponential phase (2×10^8 cfu/ml) S. aureus strain UAMS-1 cells and incubated at 37° C. Aliquots were removed at 0, 2, 4, 8, and 24 hr post-antimicrobial challenge, serial diluted, and plated to enumerate resulting cfu/ml. All time-kill assays were repeated at least 3 times.

[1] = tested on: biofilm-associated S. aureus strain UAMS-1; settings: Weiss et al. 2009, cited from earlier work; for clearance of biofilm-associated S. aureus: 20× MIC over 3 days; for maximal decrease in biofilm-associated bacteria: same model and conditions
S. aureus strain Smith = assay: acute lethal model of infection; assay type: in vivo, CD-1 mice; settings: 5 days
Method: Because RNPA1000 was not toxic during short- and only mildly toxic during extended-HepG2 exposure, it could serve as an appropriate tool to assess whether RnpA-inhibitory molecules are efficacious in a systemic mouse infection model. […] RNPA1000 was solubilized in 1:1 mixture of DMSO and PEG400; Vancomycin was prepared in water. Animals (5/dose group) were administered 16, 64, and 256 mg/kg or 0.25, 1, 4, and 16 mg/kg of RNPA1000 or Vancomycin, respectively, at 30 min post infection by subcutaneous injection (0.2 ml). The percent surviving animals receiving no treatment, a single dose of Vancomycin, or RnpA-inhibitor was recorded daily over the course of the study (5 days).
Percent survival refers to a consensus of surviving animals following 5 days post-intraperitoneal S. aureus injection and RNPA1000 administration. The number in parentheses indicates the number of times the experiment was repeated. Each member of non-treated control mice expired within 24 hr bacterial inoculation (0 mg/kg). Vancomycin served as a positive control.

| Structure (SMILES) | MIC of commercial antibiotic (S. aureus (MSSA)) [µg/mL] | clearance of biofilm-associated S. aureus [1] | maximal decrease in biofilm-associated bacteria [1] [log] | % Survival (S. aureus strain Smith; Vancomycin 0.25 mg/kg s.c.) [%] | % Survival (S. aureus strain Smith; Vancomycin 1 mg/kg s.c.) [%] | % Survival (S. aureus strain Smith; Vancomycin 4 mg/kg s.c.) [%] | % Survival (S. aureus strain Smith; Vancomycin 16 mg/kg s.c.) [%] |
| --- | --- | --- | --- | --- | --- | --- | --- |
| CN[C@H](CC(C)C)C(=O)N[C@H]1C(=O)N[C@@H](CC(N)=O)C(=O)N[C@H]2C(=O)N[C@H]3C(=O)N[C@H](C(=O)N[C@H](C(=O)O)c4cc(O)cc(O)c4-c4cc3ccc4O)[C@H](O)c3ccc(c(Cl)c3)Oc3cc2cc(c3O[C@@H]2O[C@H](CO)[C@@H](O)[C@H](O)[C@H]2O[C@H]2C[C@](C)(N)[C@H](O)[C@H](C)O2)Oc2ccc(cc2Cl)[C@H]1O [Vancomycin, vancomycin, reference compound] | 2 | none of these antibiotics cleared | 4 | 0 | 100 | 100 | 100 |
| CCCCCCCCCC(=O)N[C@@H](Cc1c[nH]c2ccccc12)C(=O)N[C@H](CC(N)=O)C(=O)N[C@@H](CC(=O)O)C(=O)N[C@@H]1C(=O)NCC(=O)N[C@@H](CCCN)C(=O)N[C@@H](CC(=O)O)C(=O)N[C@H](C)C(=O)N[C@@H](CC(=O)O)C(=O)NCC(=O)N[C@H](CO)C(=O)N[C@@H]([C@H](C)CC(=O)O)C(=O)N[C@@H](CC(=O)c2ccccc2N)C(=O)O[C@@H]1C [daptomycin] | 1 | none of these antibiotics cleared | 6 | – | – | – | – |
| CC(=O)NC[C@H]1CN(c2ccc(N3CCOCC3)c(F)c2)C(=O)O1 [linezolid] | – | none of these antibiotics cleared | 5 | – | – | – | – |
| Cc1onc(-c2ccccc2)c1C(=O)N[C@@H]1C(=O)N2[C@@H]1SC(C)(C)[C@@H]2C(=O)O [oxacillin] | 1 | – | – | – | – | – | – |
| CO[C@H]1/C=C/O[C@@]2(C)Oc3c(C)c(O)c4c(O)c(c(/C=N/N5CCN(C)CC5)c(O)c4c3C2=O)NC(=O)/C(C)=C\C=C\[C@H](C)[C@H](O)[C@@H](C)[C@@H](O)[C@@H](C)[C@H](OC(C)=O)[C@@H]1C [rifampicin] | 0.5 | – | – | – | – | – | – |
